Results from US8664246B2, “Substituted pyridines, and use thereof as GSK3 inhibitors” (Bayer Intellectual Property GmbH, priority 2008, dated 2014).

Molecular target: T1, GSK3β (Homo sapiens, UniProt P49841)
T1 construct: purchased Upstate 14-306
Test: In vitro biochemical GSK3β inhibition assay (pyruvate kinase/lactate dehydrogenase-coupled, NADH fluorescence)
Conditions: 5 nM GSK3β, 40 μM GSK3β substrate GSM, 50 μM ATP, 30° C. for 2 hours
Procedure: The inhibitory activity of active substances is determined in a biochemical assay. The ingredients required for this purpose are mixed in a black 384-well microtitre plate with transparent base (from Greiner, catalogue number 781092). The ingredients required for each well of the 384-well microtitre plate are 5 nM GSK3β (from Upstate, catalogue number 14-306), 40 μM GSK3β substrate GSM (sequence H-RRRPASVPPSPSLSRHS-(pS)-HQRR, from Upstate, catalogue number 2-533), 30 μM nicotinamide adenine dinucleotide NADH (Roche Diagnostics, catalogue number 10107735), 50 μM adenosine triphosphate ATP (from Sigma, catalogue number A7966), 2 mM phosphoenolpyruvate (from Roche, catalogue number 128112), and approx. 1 U/ml pyruvate kinase and approx. 1 U/ml lactate dehydrogenase, which are present together in a stock formulation (from Roche, catalogue number 10737291001, suspension with approx. 450 U/ml pyruvate kinase activity, approx. 450 U/ml lactate dehydrogenase activity in […] ammonium sulphate solution pH 6). 1 unit of pyruvate kinase converts 1 μmol of phosphoenolpyruvate to pyruvate per minute at pH 7.6 and 37° C., and 1 unit of lactate dehydrogenase reduces 1 μmol of pyruvate to lactate per minute at pH 7.5 and 37° C. The reaction buffer required, in which the biochemical reaction proceeds, consists of 50 mM Trizma hydrochloride Tris-HCl pH: 7.5 (from Sigma, catalogue number T3253), 5 mM magnesium chloride MgCl2 (from Sigma, catalogue number M8266), 0.2 mM DL-dithiothreitol DTT (from Sigma, catalogue number D9779), 2 mM ethylenediamine ether tetraacid EDTA (from Sigma, catalogue number E6758), 0.01% Triton X-100 (from Sigma, catalogue number T8787) and 0.05% bovine serum albumin BSA (from Sigma, catalogue number B4287).
Active substances are dissolved in dimethyl sulphoxide DMSO (from Sigma, catalogue number D8418) in a concentration of 10 mM. Active substances are added in serial concentrations of 10 μM, 1 μM, 0.1 μM, 0.01 μM, 0.001 μM, 0.0001 μM, 0.00001 μM, 0.000001 μM to the mixtures of the biochemical reaction. As control, dimethyl sulphoxide is added instead of substance in a final concentration of 0.1%.
The reaction is incubated at 30° C. for 2 hours and then the resulting fluorescence is measured in a Tecan Safire-XFLUOR4 instrument, version V4.50 (serial number 12901300283) with the specifications: measurement mode—fluorescence measured from below, excitation wavelength 340 nm, emission wavelength 465 nm, excitation slit width 5 nm, emission slit width 5 nm, gain mode 120, delay 0 μs, number of light flashes per measurement 3, and an integration time of 40 μs.
The activity of the active substances is calculated in relation to these 0% and 100%.

T1 sequence (P49841 whole entry): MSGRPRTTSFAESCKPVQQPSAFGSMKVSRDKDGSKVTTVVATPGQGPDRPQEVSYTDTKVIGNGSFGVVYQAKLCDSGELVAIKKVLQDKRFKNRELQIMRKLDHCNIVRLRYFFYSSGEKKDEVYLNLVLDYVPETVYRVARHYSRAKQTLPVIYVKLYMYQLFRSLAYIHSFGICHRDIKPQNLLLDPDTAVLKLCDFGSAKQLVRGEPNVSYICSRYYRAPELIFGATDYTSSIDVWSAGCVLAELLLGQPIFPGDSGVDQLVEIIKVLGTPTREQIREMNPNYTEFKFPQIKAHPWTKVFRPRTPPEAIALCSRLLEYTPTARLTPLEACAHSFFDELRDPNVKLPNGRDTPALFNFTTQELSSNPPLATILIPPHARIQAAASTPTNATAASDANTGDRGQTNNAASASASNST

SMILES | IC50
N#Cc1ccc(-c2ccc(Cl)cc2Cl)nc1N1CCCC(Nc2ccc(C(=O)C(F)(F)F)c(N)n2)C1 (single isomer, unassigned) [Example Ent-B-2, 2-(3-{[6-amino-5-(trifluoroacetyl)pyridin-2-yl]amino}piperidin-1-yl)-6-(2,4-dichlorophenyl)pyridine-3-carbonitrile] | 5.04 nM
COc1ccccc1-c1ccc(C(=O)N2CCN(C(C)C)CC2)c(N2CCCC(Nc3ccc(C(=O)C(F)(F)F)c(N)n3)C2)n1 (single isomer, unassigned) [Example Ent-B-12, 1-[2-amino-6-({1-[6-(2-methoxyphenyl)-3-{[4-(propan-2-yl)-piperazin-1-yl]carbonyl}pyridin-2-yl]piperidin-3-yl}amino)pyridin-3-yl]-2,2,2-trifluoroethanone] | 6.3 nM
N#Cc1ccc(NC2CCCN(c3nc(-c4ccc(Cl)cc4Cl)ccc3C#N)C2)nc1N (stereo not shown) [Example 6, 2-Amino-6-({1-[3-cyano-6-(2,4-dichlorophenyl)pyridin-2-yl]piperidin-3-yl}amino)-pyridine-3-carbonitrile] | 26 nM
N#Cc1ccc(NC2CCCN(c3nc(-c4ccc(Cl)cc4Cl)ccc3C#N)C2)nc1 (stereo not shown) [Example 7, 2-{3-[(5-Cyanopyridin-2-yl)amino]piperidin-1-yl}-6-(2,4-dichlorophenyl)pyridine-3-carbonitrile] | 12 nM
